The source of these data is patent US20050282743A1, “Molecular interactions in cells” (Arbor Vita Corporation, priority 2001, published 2005).

Holding throughout (test): Apparent affinity (Kd) by titration of PL peptide in the G assay
Holding throughout (assay type): binding

The target in assay [1] is T1, PDZ-domain polypeptide (GST/PDZ fusion protein) (Homo sapiens, UniProt Q6P0Q8).
T1 construct: made in house; host or cells: E. coli (DH5alpha, BL21 or JM109)
The procedure, abridged: (§1)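 A fixed concentration of GST/PDZ fusion protein, 5 ug/ml by default, was mixed in solution with increasing labeled PL peptide (e.g. 0.1 uM-1 mM). Reaction times ranged from 10 minutes to 2 days at 4-37° C. Complexes were separated from free peptide and detected via the label as in the G assay, apparent affinity coming from the saturating concentration.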

For assay [2], the target named is T2, PDZ-domain polypeptide (GST/PDZ fusion protein) (Homo sapiens, UniProt Q02410).
T2 construct: made in house; host or cells: E. coli (DH5alpha, BL21 or JM109)
T2 sequence (Q02410 1-837): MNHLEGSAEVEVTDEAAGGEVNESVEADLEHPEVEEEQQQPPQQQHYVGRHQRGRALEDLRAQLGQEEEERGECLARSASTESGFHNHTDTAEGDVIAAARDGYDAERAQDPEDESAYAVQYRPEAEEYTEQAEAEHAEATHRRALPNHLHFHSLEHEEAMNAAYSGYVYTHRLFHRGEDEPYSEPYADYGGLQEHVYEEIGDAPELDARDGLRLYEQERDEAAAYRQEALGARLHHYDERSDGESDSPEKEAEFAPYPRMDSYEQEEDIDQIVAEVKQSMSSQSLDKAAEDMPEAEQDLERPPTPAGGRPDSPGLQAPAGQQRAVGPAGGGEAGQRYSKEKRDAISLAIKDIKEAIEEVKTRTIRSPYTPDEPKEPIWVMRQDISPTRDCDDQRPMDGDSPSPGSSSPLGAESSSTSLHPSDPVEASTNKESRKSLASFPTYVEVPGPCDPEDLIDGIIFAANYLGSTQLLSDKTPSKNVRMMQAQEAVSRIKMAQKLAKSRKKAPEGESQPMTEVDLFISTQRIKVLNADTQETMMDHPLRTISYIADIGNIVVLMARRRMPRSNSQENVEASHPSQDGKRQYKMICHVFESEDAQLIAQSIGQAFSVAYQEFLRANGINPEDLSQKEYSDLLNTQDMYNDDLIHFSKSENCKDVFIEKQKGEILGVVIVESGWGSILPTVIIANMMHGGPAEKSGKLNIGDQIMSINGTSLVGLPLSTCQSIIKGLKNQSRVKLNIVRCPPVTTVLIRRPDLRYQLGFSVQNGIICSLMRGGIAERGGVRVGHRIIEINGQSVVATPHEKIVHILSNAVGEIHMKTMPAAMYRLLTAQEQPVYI
The procedure, abridged:
as §1

Assay [3] addresses T3, PDZ-domain polypeptide (GST/PDZ fusion protein) (Homo sapiens, UniProt O75970).
T3 construct: made in house; host or cells: E. coli (DH5alpha, BL21 or JM109)
The procedure, abridged:
as §1

The target of assay [4] is T4, PDZ-domain polypeptide (GST/PDZ fusion protein) (Homo sapiens, UniProt Q86UL8).
T4 construct: made in house; host or cells: E. coli (DH5alpha, BL21 or JM109)
The following applies: PDZ atrophin-1 interacting Protein. The procedure, abridged: as §1

Setting [5] is: PDZ KIAA0807(S), PDZ Domain 1, read-out: Peptide Optimal Conc (Kd by titration of the PL peptide).

SMILES strings stand for the structures. pKd: −log10 of the molar value. Where two headings read alike, the source gives them in different places. Peptide text beside a SMILES is read from it. * marks the point of attachment. Biotin = O=C1N[C@H]2[C@H](CS[C@H]2CCCCC(=O)*)N1

T1 sequence (Q6P0Q8 whole entry, the tested form may be a part): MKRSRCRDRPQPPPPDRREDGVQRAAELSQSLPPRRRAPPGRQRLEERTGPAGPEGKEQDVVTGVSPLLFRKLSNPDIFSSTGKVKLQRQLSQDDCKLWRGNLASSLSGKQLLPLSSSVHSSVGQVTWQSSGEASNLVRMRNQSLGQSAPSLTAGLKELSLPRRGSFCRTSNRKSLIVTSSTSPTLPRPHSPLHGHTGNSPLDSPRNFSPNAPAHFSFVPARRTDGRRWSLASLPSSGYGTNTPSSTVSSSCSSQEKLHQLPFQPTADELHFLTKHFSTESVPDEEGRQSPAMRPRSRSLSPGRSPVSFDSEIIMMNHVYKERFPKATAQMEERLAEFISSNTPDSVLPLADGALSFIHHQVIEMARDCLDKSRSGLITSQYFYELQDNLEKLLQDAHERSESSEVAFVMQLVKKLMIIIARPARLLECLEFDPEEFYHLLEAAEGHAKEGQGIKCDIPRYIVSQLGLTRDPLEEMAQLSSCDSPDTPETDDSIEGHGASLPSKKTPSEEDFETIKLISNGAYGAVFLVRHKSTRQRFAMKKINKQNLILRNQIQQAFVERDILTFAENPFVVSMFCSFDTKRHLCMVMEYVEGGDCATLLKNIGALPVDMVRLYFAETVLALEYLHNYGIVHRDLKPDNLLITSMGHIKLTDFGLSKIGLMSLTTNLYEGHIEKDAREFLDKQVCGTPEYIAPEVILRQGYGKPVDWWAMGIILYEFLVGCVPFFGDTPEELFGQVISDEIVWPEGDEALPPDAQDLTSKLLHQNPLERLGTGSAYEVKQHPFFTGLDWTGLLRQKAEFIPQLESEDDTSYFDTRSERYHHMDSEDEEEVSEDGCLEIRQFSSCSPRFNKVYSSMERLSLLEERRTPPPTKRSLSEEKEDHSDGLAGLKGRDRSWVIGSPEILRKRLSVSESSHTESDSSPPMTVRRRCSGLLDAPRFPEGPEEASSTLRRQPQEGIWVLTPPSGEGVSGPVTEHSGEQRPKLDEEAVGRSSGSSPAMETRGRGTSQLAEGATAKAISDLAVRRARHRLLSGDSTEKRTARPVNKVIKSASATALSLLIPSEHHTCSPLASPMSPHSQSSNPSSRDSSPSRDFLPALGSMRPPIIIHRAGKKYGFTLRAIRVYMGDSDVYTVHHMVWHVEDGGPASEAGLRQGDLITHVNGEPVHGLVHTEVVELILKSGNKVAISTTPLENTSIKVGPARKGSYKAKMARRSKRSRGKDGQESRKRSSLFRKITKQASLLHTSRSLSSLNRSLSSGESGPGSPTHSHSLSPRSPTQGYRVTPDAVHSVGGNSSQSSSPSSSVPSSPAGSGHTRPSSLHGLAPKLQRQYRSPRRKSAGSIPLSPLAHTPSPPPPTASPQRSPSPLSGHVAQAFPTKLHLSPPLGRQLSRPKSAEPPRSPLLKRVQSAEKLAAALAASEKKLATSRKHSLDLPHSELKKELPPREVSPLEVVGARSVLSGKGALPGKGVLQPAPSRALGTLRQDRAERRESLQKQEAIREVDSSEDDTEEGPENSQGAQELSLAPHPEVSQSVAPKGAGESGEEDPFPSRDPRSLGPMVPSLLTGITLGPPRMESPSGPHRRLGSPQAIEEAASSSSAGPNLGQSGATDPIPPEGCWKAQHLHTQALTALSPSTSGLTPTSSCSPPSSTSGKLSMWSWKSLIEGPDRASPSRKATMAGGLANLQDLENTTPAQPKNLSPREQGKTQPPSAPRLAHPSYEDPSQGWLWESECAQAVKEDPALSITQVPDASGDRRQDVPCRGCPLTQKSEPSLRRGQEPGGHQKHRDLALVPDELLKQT
T3 sequence (O75970 whole entry, the tested form may be a part): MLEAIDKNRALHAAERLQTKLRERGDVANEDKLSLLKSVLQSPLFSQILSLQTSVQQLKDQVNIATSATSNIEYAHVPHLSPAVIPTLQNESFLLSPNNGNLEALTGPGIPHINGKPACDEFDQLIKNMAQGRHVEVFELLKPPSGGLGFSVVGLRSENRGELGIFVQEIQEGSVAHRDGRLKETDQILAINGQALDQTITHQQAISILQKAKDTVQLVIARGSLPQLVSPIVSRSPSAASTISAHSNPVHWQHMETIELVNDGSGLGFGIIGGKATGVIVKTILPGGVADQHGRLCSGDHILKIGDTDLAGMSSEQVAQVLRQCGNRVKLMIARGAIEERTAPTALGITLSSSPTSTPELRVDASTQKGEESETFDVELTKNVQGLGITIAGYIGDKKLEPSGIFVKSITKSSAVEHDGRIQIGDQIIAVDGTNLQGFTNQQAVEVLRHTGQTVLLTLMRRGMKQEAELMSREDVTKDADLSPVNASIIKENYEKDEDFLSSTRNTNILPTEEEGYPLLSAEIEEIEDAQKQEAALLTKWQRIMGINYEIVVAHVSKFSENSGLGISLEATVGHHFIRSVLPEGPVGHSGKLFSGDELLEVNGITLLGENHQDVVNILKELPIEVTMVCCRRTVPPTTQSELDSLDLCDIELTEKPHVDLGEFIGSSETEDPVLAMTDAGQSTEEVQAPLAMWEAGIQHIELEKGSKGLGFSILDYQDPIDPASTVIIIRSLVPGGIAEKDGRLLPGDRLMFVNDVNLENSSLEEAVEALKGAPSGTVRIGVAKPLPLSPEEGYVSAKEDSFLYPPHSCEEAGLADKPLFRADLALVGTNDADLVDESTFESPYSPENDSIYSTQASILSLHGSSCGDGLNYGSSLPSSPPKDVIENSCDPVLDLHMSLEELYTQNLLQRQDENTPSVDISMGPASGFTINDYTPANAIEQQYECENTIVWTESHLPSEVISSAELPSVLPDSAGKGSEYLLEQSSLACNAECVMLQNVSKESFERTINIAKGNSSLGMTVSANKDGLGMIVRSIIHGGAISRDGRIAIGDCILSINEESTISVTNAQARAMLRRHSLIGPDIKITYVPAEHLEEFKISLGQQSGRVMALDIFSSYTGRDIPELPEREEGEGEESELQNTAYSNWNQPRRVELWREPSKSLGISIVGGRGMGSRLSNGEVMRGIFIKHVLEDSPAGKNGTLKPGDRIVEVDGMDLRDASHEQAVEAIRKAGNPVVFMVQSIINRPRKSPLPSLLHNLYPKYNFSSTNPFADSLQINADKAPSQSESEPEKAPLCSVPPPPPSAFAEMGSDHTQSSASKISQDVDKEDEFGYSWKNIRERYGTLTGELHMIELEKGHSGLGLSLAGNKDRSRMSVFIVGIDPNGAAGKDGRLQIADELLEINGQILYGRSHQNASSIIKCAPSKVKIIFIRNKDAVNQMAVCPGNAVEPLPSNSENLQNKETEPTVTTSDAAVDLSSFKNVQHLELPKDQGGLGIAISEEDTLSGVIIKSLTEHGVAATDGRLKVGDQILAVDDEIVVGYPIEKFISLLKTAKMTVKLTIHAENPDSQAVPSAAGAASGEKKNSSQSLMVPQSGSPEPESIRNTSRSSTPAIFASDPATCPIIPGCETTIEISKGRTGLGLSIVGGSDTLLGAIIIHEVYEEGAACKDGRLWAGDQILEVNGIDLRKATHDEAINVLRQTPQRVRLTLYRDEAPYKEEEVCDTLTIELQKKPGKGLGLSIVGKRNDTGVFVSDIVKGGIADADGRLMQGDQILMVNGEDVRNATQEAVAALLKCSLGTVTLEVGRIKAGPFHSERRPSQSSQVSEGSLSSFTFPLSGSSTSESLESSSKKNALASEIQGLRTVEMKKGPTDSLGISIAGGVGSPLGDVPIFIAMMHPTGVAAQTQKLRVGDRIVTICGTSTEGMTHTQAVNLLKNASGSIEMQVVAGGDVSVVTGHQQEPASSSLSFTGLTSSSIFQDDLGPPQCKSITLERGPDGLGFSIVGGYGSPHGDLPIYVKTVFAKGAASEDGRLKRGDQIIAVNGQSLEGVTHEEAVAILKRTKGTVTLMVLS

As to `CC[C@H](C)[C@H](NC(=O)[C@H](CCC(N)=O)NC(=O)[C@@H](NC(=O)[C@H](Cc1c[nH]cn1)NC(=O)[C@H](CCC(N)=O)NC(=O)[C@H](CC(=O)O)NC(=O)[C@H](CCC(=O)O)NC(=O)[C@H](CC(=O)O)NC(=O)[C@H](Cc1ccccc1)NC(=O)[C@@H]1CCCN1C(=O)[C@H](CCC(=O)O)NC(=O)[C@H](CC(N)=O)NC(=O)[C@H](CCC(=O)O)NC(=O)[C@@H]1CCCN1C(=O)[C@H](CC(=O)O)NC(=O)[C@H](CO)NC(=O)[C@H](CC(=O)O)NC(=O)CCCC[C@@H]1SC[C@@H]2NC(=O)N[C@@H]21)[C@@H](C)O)C(=O)N[C@H](C(=O)N[C@@H](CCCCN)C(=O)N[C@H](C(=O)O)C(C)C)[C@@H](C)O` [PTEN], the pKd in assay [1] (setting [5]) is 6.52.
On to `CC[C@H](C)[C@H](NC(=O)[C@H](C)NC(=O)[C@H](CC(C)C)NC(=O)[C@H](Cc1c[nH]c2ccccc12)NC(=O)[C@H](Cc1c[nH]cn1)NC(=O)[C@H](CCC(N)=O)NC(=O)[C@H](CC(C)C)NC(=O)[C@H](CCC(N)=O)NC(=O)[C@H](Cc1ccccc1)NC(=O)[C@H](CCC(N)=O)NC(=O)[C@H](CCCNC(=N)N)NC(=O)[C@@H](NC(=O)[C@H](CC(=O)O)NC(=O)[C@H](CCCNC(=N)N)NC(=O)[C@H](CCC(N)=O)NC(=O)[C@H](C)NC(=O)[C@@H](NC(=O)[C@H](CC(C)C)NC(=O)[C@H](Cc1c[nH]cn1)NC(=O)[C@H](Cc1c[nH]cn1)NC(=O)CCCC[C@@H]1SC[C@@H]2NC(=O)N[C@@H]21)C(C)C)[C@@H](C)CC)C(=O)O` [noradrenaline transporter] (Biotin-HHLVAQRDIRQFQLQHWLAI-OH; C-terminus assumed), for which the pKd is 6.30 in assay [2] (Peptide Optimal Conc (Kd by titration of the PL peptide), PDZ Mint 1, PDZ Domain 1, 2); 6.40 in assay [3] (Peptide Optimal Conc (Kd by titration of the PL peptide), PDZ MUPP-1, PDZ Domain 3); 6.10 in assay [3] (Peptide Optimal Conc (Kd by titration of the PL peptide), PDZ MUPP-1, PDZ Domain 7); 6.15 in assay [3] (Peptide Optimal Conc (Kd by titration of the PL peptide), PDZ MUPP-1, PDZ Domain 9).
For the compound `CC[C@H](C)[C@H](NC(=O)[C@H](Cc1ccc(O)cc1)NC(=O)[C@@H](NC(=O)[C@@H]1CCCN1C(=O)[C@H](CCC(N)=O)NC(=O)[C@H](CCC(=O)O)NC(=O)[C@H](CCC(N)=O)NC(=O)[C@H](C)NC(=O)[C@@H](NC(=O)[C@H](CC(C)C)NC(=O)[C@H](CC(C)C)NC(=O)[C@H](CCCNC(=N)N)NC(=O)[C@H](Cc1ccc(O)cc1)NC(=O)[C@H](CCSC)NC(=O)[C@H](C)NC(=O)[C@H](C)NC(=O)[C@@H]1CCCN1C(=O)[C@H](CCSC)NC(=O)[C@@H](NC(=O)[C@H](CCCCN)NC(=O)CCCC[C@@H]1SC[C@@H]2NC(=O)N[C@@H]21)[C@@H](C)O)[C@@H](C)O)C(C)C)C(=O)O` [MINT-1] (Biotin-KTMPAAMYRLLTAQEQPVYI-OH; C-terminus assumed), the pKd in assay [2] (PDZ Mint 1, PDZ Domain 1, titration of the PL peptide, read-out: Peptide Optimal Conc (Kd, dissociation constant)) is 5.70; in assay [3] (PDZ MUPP-1, PDZ Domain 7, titration of the PL peptide, read-out: Peptide Optimal Conc (Kd, dissociation constant)), 5.82.
For `CC[C@H](C)[C@H](NC(=O)[C@H](CC(=O)O)NC(=O)[C@H](CCC(=O)O)NC(=O)[C@H](CCCNC(=N)N)NC(=O)[C@@H](NC(=O)CCCC[C@@H]1SC[C@@H]2NC(=O)N[C@@H]21)[C@@H](C)O)C(=O)N[C@@H](Cc1ccc(O)cc1)C(=O)N[C@H](C(=O)N[C@@H](CC(N)=O)C(=O)N[C@@H](Cc1ccc(O)cc1)C(=O)N1CCC[C@H]1C(=O)N[C@H](C(=O)N[C@@H](Cc1ccccc1)C(=O)N[C@@H](CO)C(=O)N[C@@H](CCCNC(=N)N)C(=O)N[C@@H](CCCNC(=N)N)C(=O)N1CCC[C@H]1C(=O)N[C@@H](CCCCN)C(=O)N[C@H](C(=O)N[C@@H](CCCNC(=N)N)C(=O)N[C@H](C(=O)O)C(C)C)[C@@H](C)O)[C@@H](C)O)C(C)C` [DNAM-1] (Biotin-TREDIYVNYPTFSRRPKTRV-OH; C-terminus assumed), the pKd in assay [4] (Peptide Optimal Conc (Kd by titration of the PL peptide), PDZ Domain 1) was 5.52; in assay [3] (Peptide Optimal Conc (Kd by titration of the PL peptide), PDZ MUPP-1, PDZ Domain 10) it was 5.60; in assay [1] (Peptide Optimal Conc (Kd by titration of the PL peptide), PDZ KIAA807) it was 5.70; in assay [1] (Peptide Optimal Conc (Kd by titration of the PL peptide), PDZ KIAA0807(S), PDZ Domain 1), 5.70.
`CC(C)C[C@H](NC(=O)CNC(=O)[C@@H](NC(=O)[C@H](CO)NC(=O)[C@H](CC(N)=O)NC(=O)[C@H](Cc1ccccc1)NC(=O)CNC(=O)[C@H](C)NC(=O)[C@H](C)NC(=O)[C@H](Cc1ccccc1)NC(=O)[C@@H](NC(=O)CCCC[C@@H]1SC[C@@H]2NC(=O)N[C@@H]21)[C@@H](C)O)[C@@H](C)O)C(=O)N1CCC[C@H]1C(=O)N[C@@H](Cc1c[nH]cn1)C(=O)N[C@@H](CO)C(=O)N[C@H](C(=O)N[C@H](C(=O)N[C@@H](CCCNC(=N)N)C(=O)N[C@H](C(=O)O)C(C)C)[C@@H](C)O)[C@@H](C)O` [Neuroligin] (Biotin-TFAAGFNSTGLPHSTTRV-OH; C-terminus assumed): the pKd in assay [4] (PDZ Domain 1, read-out: Peptide Optimal Conc (Kd by titration of the PL peptide)) was 6.60.
Take `CC[C@H](C)[C@H](NC(=O)CNC(=O)[C@H](CO)NC(=O)[C@H](Cc1ccccc1)NC(=O)[C@@H](NC(=O)[C@H](CS)NC(=O)CNC(=O)CNC(=O)[C@H](C)NC(=O)[C@@H]1CCCN1C(=O)[C@@H](NC(=O)[C@@H]1CCCN1C(=O)CCCC[C@@H]1SC[C@@H]2NC(=O)N[C@@H]21)[C@@H](C)CC)[C@@H](C)O)C(=O)N[C@@H](Cc1ccccc1)C(=O)N1CCC[C@H]1C(=O)N[C@H](C(=O)N[C@@H](CC(C)C)C(=O)N[C@H](C(=O)N[C@@H](CO)C(=O)N1CCC[C@H]1C(=O)N[C@@H](CC(C)C)C(=O)O)[C@@H](C)O)[C@@H](C)O` [KIA 1481] (Biotin-PIPAGGCTFSGIFPTLTSPL-OH; C-terminus assumed): the pKd in assay [2] (PDZ Mint 1, PDZ Domain 1, 2, read-out: Peptide Optimal Conc (non-zero value: Kd by titration of the PL peptide)) is 6.10.
For `CSCC[C@H](NC(=O)[C@H](C)NC(=O)[C@H](CCCNC(=N)N)NC(=O)CNC(=O)[C@@H](NC(=O)[C@H](Cc1c[nH]c2ccccc12)NC(=O)[C@H](CCCNC(=N)N)NC(=O)CNC(=O)CCCC[C@@H]1SC[C@@H]2NC(=O)N[C@@H]21)[C@@H](C)O)C(=O)N[C@@H](CO)C(=O)N[C@@H](C)C(=O)N[C@@H](Cc1c[nH]c2ccccc12)C(=O)N[C@@H](CCCCN)C(=O)N1CCC[C@H]1C(=O)N[C@H](C(=O)N[C@@H](CCCNC(=N)N)C(=O)N[C@@H](CCCNC(=N)N)C(=O)N[C@@H](CCC(=O)O)C(=O)N[C@H](C(=O)N[C@@H](CCC(=O)O)C(=O)N[C@H](C(=O)O)C(C)C)[C@@H](C)O)[C@@H](C)O` [HPV E6 #35 (modified)] (Biotin-GRWTGRAMSAWKPTRRETEV-OH; C-terminus assumed), the pKd in assay [4] (PDZ Domain 2, read-out: Peptide Optimal Conc (Kd by titration of the PL peptide)) was 6.10; in assay [1] (PDZ KIAA0807(S), PDZ Domain 1, Protein Optimal Conc 0.5, read-out: Peptide Optimal Conc (Kd by titration of the PL peptide)) it was 7.00.
In the case of `CC(C)C[C@H](NC(=O)[C@H](Cc1c[nH]c2ccccc12)NC(=O)[C@H](Cc1c[nH]cn1)NC(=O)[C@H](CCCNC(=N)N)NC(=O)[C@H](CC(C)C)NC(=O)[C@@H](NC(=O)[C@H](Cc1ccccc1)NC(=O)[C@H](CCC(N)=O)NC(=O)[C@H](CCCNC(=N)N)NC(=O)[C@@H](NC(=O)[C@H](CCC(=O)O)NC(=O)CNC(=O)[C@H](CCCNC(=N)N)NC(=O)[C@H](CC(=O)O)NC(=O)[C@@H](NC(=O)[C@H](CC(C)C)NC(=O)[C@H](CCC(=O)O)NC(=O)[C@H](CCCNC(=N)N)NC(=O)CCCC[C@@H]1SC[C@@H]2NC(=O)N[C@@H]21)C(C)C)C(C)C)[C@@H](C)O)C(=O)N[C@@H](CCCCN)C(=O)N[C@H](C(=O)O)C(C)C` [Dopamine transporter (Na+-dependent)] (Biotin-RELVDRGEVRQFTLRHWLKV-OH; C-terminus assumed), the pKd is 6.40 in assay [1] (setting [5]) and 6.40 in assay [1] (PDZ KIAA807, read-out: Peptide Optimal Conc (Kd by titration of the PL peptide)).
